Data on 14 compounds can be found in patent publication US20200060276A1, “THIAZOLE COMPOUND AND HERBICIDE” (OAT Agrio Co., Ltd., priority 2017, published 2020).

Format in all cases: in vivo
One test deals with Monochoria vaginalis. The test can be described thus: Test for Herbicidal Effect in Flooding Treatment (#1), MONVA. The note with it: flooding treatment at seeding, dose 2 kg/ha, visual observation on day 21. A digest of the protocol:
(§1)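 Sieved soil in cups was flooded and left 24 h before weed seeds were sown. Compounds in acetone, diluted with Tween 80-containing water, were dropped over the whole surface at 2 kg/ha. After 21 days in a glasshouse, growth inhibition was scored visually from 0 (<10%) to 5 (≥90% or complete withering).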

The subject of the next test is Scirpus juncoides. The test can be described thus: Test for Herbicidal Effect in Flooding Treatment (#1), SCIJU. As to conditions: flooding treatment at seeding, dose 2 kg/ha, visual observation on day 21. A digest of the protocol:
as §1

Test [1] has as its system Echinochloa crus-galli (L.) P. Beauv. var. formosensis Ohwi. The experiment in a line: Test for Herbicidal Effect in Flooding Treatment (#1), ECHDG. As to conditions: flooding treatment at seeding, dose 2 kg/ha, visual observation on day 21. A digest of the protocol:
as §1

Test [2] shares this test system. The test can be described thus: Test for Herbicidal Effect in Flooding Treatment (#2), ECHDG at 2-2.5 leaf stage. As to conditions: flooding treatment at 2-2.5 leaf stage, dose 0.2 kg/ha, visual observation on day 21. A digest of the protocol: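 Scoring is a visual 0–5 scale of growth inhibition (0 below 10%, 5 at 90% or more or full withering), taken 21 days after treatment in a glasshouse. Dose was 0.2 kg/ha, applied as acetone/Tween 80 aqueous solution onto flooded soil once seedlings reached the 2–2.5 leaf stage.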

The structures appear in SMILES notation.

For `O=S(=O)(Cc1c(F)cccc1OCC(F)F)c1ncc(Cl)s1` [Compound 1C-50], the “MONVA #1 herbicidal effect (growth inhibition grade)” value with Monochoria vaginalis is on record as 5 (Growth inhibition effect is equal to or greater than 90%, or complete withering is achieved). The “SCIJU #1 herbicidal effect (growth inhibition grade)” value in the test with Scirpus juncoides was 5 (Growth inhibition effect is equal to or greater than 90%, or complete withering is achieved). Also, the “ECHDG #1 herbicidal effect (growth inhibition grade)” value in test [1] is on record as 5 (Growth inhibition effect is equal to or greater than 90%, or complete withering is achieved). In addition, the “ECHDG (2-2.5L) #2 herbicidal effect (growth inhibition grade)” value in test [2] is on record as 5 (Growth inhibition effect is equal to or greater than 90%, or complete withering is achieved).
On to `O=S(=O)(Cc1c(Cl)cccc1OCC(F)F)c1ncc(Cl)s1` [Compound 1C-51], for which the “MONVA #1 herbicidal effect (growth inhibition grade)” value with Monochoria vaginalis is 5 (Growth inhibition effect is equal to or greater than 90%, or complete withering is achieved). Besides, the “SCIJU #1 herbicidal effect (growth inhibition grade)” value in the test with Scirpus juncoides was 5 (Growth inhibition effect is equal to or greater than 90%, or complete withering is achieved). In addition, in test [1], the “ECHDG #1 herbicidal effect (growth inhibition grade)” value was 5 (Growth inhibition effect is equal to or greater than 90%, or complete withering is achieved). The “ECHDG (2-2.5L) #2 herbicidal effect (growth inhibition grade)” value in test [2] is recorded as 5 (Growth inhibition effect is equal to or greater than 90%, or complete withering is achieved).
Consider `O=S(=O)(Cc1c(OCC(F)F)cccc1C(F)(F)F)c1ncc(Cl)s1` [Compound 1C-52], for which, in the test on Monochoria vaginalis, the “MONVA #1 herbicidal effect (growth inhibition grade)” value is on record as 5 (Growth inhibition effect is equal to or greater than 90%, or complete withering is achieved). Also, in the test with Scirpus juncoides, the “SCIJU #1 herbicidal effect (growth inhibition grade)” value is recorded as 5 (Growth inhibition effect is equal to or greater than 90%, or complete withering is achieved). Further, the “ECHDG #1 herbicidal effect (growth inhibition grade)” value in test [1] was 5 (Growth inhibition effect is equal to or greater than 90%, or complete withering is achieved). Moreover, the “ECHDG (2-2.5L) #2 herbicidal effect (growth inhibition grade)” value in test [2] is on record as 5 (Growth inhibition effect is equal to or greater than 90%, or complete withering is achieved).
As to `O=S(=O)(Cc1ccccc1OCC(F)(F)F)c1ncc(Cl)s1` [Compound 1C-53], in the test on Monochoria vaginalis, the “MONVA #1 herbicidal effect (growth inhibition grade)” value is given as 5 (Growth inhibition effect is equal to or greater than 90%, or complete withering is achieved). Also, the “SCIJU #1 herbicidal effect (growth inhibition grade)” value in the test on Scirpus juncoides was 5 (Growth inhibition effect is equal to or greater than 90%, or complete withering is achieved). The “ECHDG #1 herbicidal effect (growth inhibition grade)” value in test [1] was 5 (Growth inhibition effect is equal to or greater than 90%, or complete withering is achieved). The “ECHDG (2-2.5L) #2 herbicidal effect (growth inhibition grade)” value in test [2] is 5 (Growth inhibition effect is equal to or greater than 90%, or complete withering is achieved).
Consider `O=S(=O)(Cc1c(F)cccc1OCC(F)(F)F)c1ncc(Cl)s1` [Compound 1C-54], for which the “MONVA #1 herbicidal effect (growth inhibition grade)” value in the test on Monochoria vaginalis is reported as 5 (Growth inhibition effect is equal to or greater than 90%, or complete withering is achieved). Also, the “SCIJU #1 herbicidal effect (growth inhibition grade)” value in the test with Scirpus juncoides was 5 (Growth inhibition effect is equal to or greater than 90%, or complete withering is achieved). In addition, in test [1], the “ECHDG #1 herbicidal effect (growth inhibition grade)” value is recorded as 5 (Growth inhibition effect is equal to or greater than 90%, or complete withering is achieved). Moreover, the “ECHDG (2-2.5L) #2 herbicidal effect (growth inhibition grade)” value in test [2] was 5 (Growth inhibition effect is equal to or greater than 90%, or complete withering is achieved).
Take `O=S(=O)(Cc1c(Cl)cccc1OCC(F)(F)F)c1ncc(Cl)s1` [Compound 1C-55]: the “MONVA #1 herbicidal effect (growth inhibition grade)” value in the test with Monochoria vaginalis was 5 (Growth inhibition effect is equal to or greater than 90%, or complete withering is achieved). Also, the “SCIJU #1 herbicidal effect (growth inhibition grade)” value in the test with Scirpus juncoides was 5 (Growth inhibition effect is equal to or greater than 90%, or complete withering is achieved). In test [1], the “ECHDG #1 herbicidal effect (growth inhibition grade)” value is given as 5 (Growth inhibition effect is equal to or greater than 90%, or complete withering is achieved). For the same compound, the “ECHDG (2-2.5L) #2 herbicidal effect (growth inhibition grade)” value in test [2] is on record as 5 (Growth inhibition effect is equal to or greater than 90%, or complete withering is achieved).
For the compound `O=S(=O)(Cc1c(F)cccc1OCCC(F)(F)F)c1ncc(Cl)s1` [Compound 1C-58], the “MONVA #1 herbicidal effect (growth inhibition grade)” value with Monochoria vaginalis is listed as 5 (Growth inhibition effect is equal to or greater than 90%, or complete withering is achieved). Also, in the test on Scirpus juncoides, the “SCIJU #1 herbicidal effect (growth inhibition grade)” value was 5 (Growth inhibition effect is equal to or greater than 90%, or complete withering is achieved). Besides, the “ECHDG #1 herbicidal effect (growth inhibition grade)” value in test [1] is on record as 5 (Growth inhibition effect is equal to or greater than 90%, or complete withering is achieved). Moreover, the “ECHDG (2-2.5L) #2 herbicidal effect (growth inhibition grade)” value in test [2] is recorded as 5 (Growth inhibition effect is equal to or greater than 90%, or complete withering is achieved).
As to `O=S(=O)(Cc1c(Cl)cccc1OCCC(F)(F)F)c1ncc(Cl)s1` [Compound 1C-59], the “MONVA #1 herbicidal effect (growth inhibition grade)” value in the test with Monochoria vaginalis was 5 (Growth inhibition effect is equal to or greater than 90%, or complete withering is achieved). In the test with Scirpus juncoides, the “SCIJU #1 herbicidal effect (growth inhibition grade)” value was 5 (Growth inhibition effect is equal to or greater than 90%, or complete withering is achieved). Moreover, in test [1], the “ECHDG #1 herbicidal effect (growth inhibition grade)” value is reported as 5 (Growth inhibition effect is equal to or greater than 90%, or complete withering is achieved). Also, in test [2], the “ECHDG (2-2.5L) #2 herbicidal effect (growth inhibition grade)” value is 4 (Growth inhibition effect is equal to or greater than 70%, and less than 90%).
On to `O=S(=O)(Cc1c(F)cccc1OCC(F)(F)C(F)F)c1ncc(Cl)s1` [Compound 1C-60, 5-chloro-2-{[2-(2,2,3,3-tetrafluoropropoxy)-6-fluorophenyl][methanesulfonyl]}-1,3-thiazole], for which the “MONVA #1 herbicidal effect (growth inhibition grade)” value in the test with Monochoria vaginalis is reported as 5 (Growth inhibition effect is equal to or greater than 90%, or complete withering is achieved). Also, the “SCIJU #1 herbicidal effect (growth inhibition grade)” value in the test on Scirpus juncoides is recorded as 5 (Growth inhibition effect is equal to or greater than 90%, or complete withering is achieved). The “ECHDG #1 herbicidal effect (growth inhibition grade)” value in test [1] is given as 5 (Growth inhibition effect is equal to or greater than 90%, or complete withering is achieved). Moreover, in test [2], the “ECHDG (2-2.5L) #2 herbicidal effect (growth inhibition grade)” value was 5 (Growth inhibition effect is equal to or greater than 90%, or complete withering is achieved).
For the compound `O=S(=O)(Cc1c(F)cccc1OCC(F)(F)C(F)(F)F)c1ncc(Cl)s1` [Compound 1C-61], in the test with Monochoria vaginalis, the “MONVA #1 herbicidal effect (growth inhibition grade)” value is on record as 5 (Growth inhibition effect is equal to or greater than 90%, or complete withering is achieved). Besides, the “SCIJU #1 herbicidal effect (growth inhibition grade)” value with Scirpus juncoides is given as 5 (Growth inhibition effect is equal to or greater than 90%, or complete withering is achieved). Further, in test [1], the “ECHDG #1 herbicidal effect (growth inhibition grade)” value is reported as 5 (Growth inhibition effect is equal to or greater than 90%, or complete withering is achieved). Besides, in test [2], the “ECHDG (2-2.5L) #2 herbicidal effect (growth inhibition grade)” value was 5 (Growth inhibition effect is equal to or greater than 90%, or complete withering is achieved).
For the compound `O=S(=O)(Cc1c(Cl)cccc1OCC(F)(F)C(F)(F)F)c1ncc(Cl)s1` [Compound 1C-62], the “MONVA #1 herbicidal effect (growth inhibition grade)” value in the test with Monochoria vaginalis is 5 (Growth inhibition effect is equal to or greater than 90%, or complete withering is achieved). The “SCIJU #1 herbicidal effect (growth inhibition grade)” value in the test on Scirpus juncoides was 5 (Growth inhibition effect is equal to or greater than 90%, or complete withering is achieved). Also, in test [1], the “ECHDG #1 herbicidal effect (growth inhibition grade)” value is on record as 5 (Growth inhibition effect is equal to or greater than 90%, or complete withering is achieved). In addition, in test [2], the “ECHDG (2-2.5L) #2 herbicidal effect (growth inhibition grade)” value was 4 (Growth inhibition effect is equal to or greater than 70%, and less than 90%).
`O=S(=O)(Cc1c(F)cccc1OCCCC(F)(F)F)c1ncc(Cl)s1` [Compound 1C-63]: the “MONVA #1 herbicidal effect (growth inhibition grade)” value in the test on Monochoria vaginalis is 5 (Growth inhibition effect is equal to or greater than 90%, or complete withering is achieved). Moreover, the “SCIJU #1 herbicidal effect (growth inhibition grade)” value with Scirpus juncoides was 5 (Growth inhibition effect is equal to or greater than 90%, or complete withering is achieved). Also, the “ECHDG #1 herbicidal effect (growth inhibition grade)” value in test [1] is given as 5 (Growth inhibition effect is equal to or greater than 90%, or complete withering is achieved). Moreover, the “ECHDG (2-2.5L) #2 herbicidal effect (growth inhibition grade)” value in test [2] is 3 (Growth inhibition effect equal to or greater than 50%, and less than 70%).
On to `COc1ccc(Cl)c(CS(=O)(=O)c2ncc(Cl)s2)c1Cl` [Compound 1C-73], for which, in the test with Monochoria vaginalis, the “MONVA #1 herbicidal effect (growth inhibition grade)” value is 5 (Growth inhibition effect is equal to or greater than 90%, or complete withering is achieved). The “SCIJU #1 herbicidal effect (growth inhibition grade)” value in the test on Scirpus juncoides was 5 (Growth inhibition effect is equal to or greater than 90%, or complete withering is achieved). Besides, the “ECHDG #1 herbicidal effect (growth inhibition grade)” value in test [1] is recorded as 5 (Growth inhibition effect is equal to or greater than 90%, or complete withering is achieved). Further, the “ECHDG (2-2.5L) #2 herbicidal effect (growth inhibition grade)” value in test [2] is listed as 5 (Growth inhibition effect is equal to or greater than 90%, or complete withering is achieved).
Turning to `[2H]C([2H])(c1c(OCC)ccc(Cl)c1Cl)S(=O)(=O)c1ncc(Cl)s1` [Compound 1C-130, 5-chloro-2-{[2-ethoxy-5,6-dichlorophenyl][dideuterium(methanesulfonyl)]}-1,3-thiazole], the “MONVA #1 herbicidal effect (growth inhibition grade)” value in the test with Monochoria vaginalis is 5 (Growth inhibition effect is equal to or greater than 90%, or complete withering is achieved). Also, the “SCIJU #1 herbicidal effect (growth inhibition grade)” value with Scirpus juncoides is given as 5 (Growth inhibition effect is equal to or greater than 90%, or complete withering is achieved). In addition, the “ECHDG #1 herbicidal effect (growth inhibition grade)” value in test [1] was 5 (Growth inhibition effect is equal to or greater than 90%, or complete withering is achieved). In test [2], the “ECHDG (2-2.5L) #2 herbicidal effect (growth inhibition grade)” value was 5 (Growth inhibition effect is equal to or greater than 90%, or complete withering is achieved).
